Key:
human skin = experiment: UVB irradiation of human skin measuring damage by formation of sunburn cells (sunburn cell assay); type: in vivo; conditions: for reduction in SBCs: 0.5% w/w in ethanol/water, topical once a day for two weeks, 1.5 MED UVB; for Sun Burn Cell Assay score: normalized to best performer = 20 points
From the text: Test 1: UVB Irradiation of Human Skin Measuring Damage by Formation of Sunburn Cells (SBC)
Exposure to UV radiation can cause damage of epidermal cells, resulting in the formation of sunburn cells. Since sunburn cells can be counted, their formation provides a relatively sensitive and quantitative measure of the extent of UV radiation damage to the epidermis.
All applications were made to a 5×10 cm area site over the mid-back region once a day for two weeks. Each putative antioxidant was applied to five (n=5) different healthy adult volunteers between the ages of 18 and 60. All Antioxidants were dissolved in ethanol/water at 0.5% w/w concentrations. Additionally, one test site was left untreated and served as a control. Approximately ten minutes after the last application, test sites were irradiated to 1.5 MED (Minimal Erythema Dose) of UVB light, a shave biopsy taken and prepared histologically, and the number of sun burn cells (SBC) evaluated microscopically per High Power Field.
The light source used was a 150 watt xenon arc solar simulator equipped with a UV reflecting dichromic mirror and a 1 mm thick Schott WG-320 (BES Optics Inc., W. Warwick, R.I.) filter to produce simulation of the solar spectrum. A 1 mm thick UG5 filter was added to remove reflected heat and remaining visible radiation.
The MED for each subject was determined by exposing a 1 cm diameter circle to untreated areas to a series of exposures in 25% dose increments from the solar simulator. The MED was defined as the time of exposure required to produce a minimally perceptible erythema 20±4 hours after exposure. Biopsies: Approximately ten minutes after the last topical application of the putative antioxidant, a circular area measuring 1 cm in diameter was exposed to a single dose of 1.5 MED using the solar simulator. Approximately 20 hours later, a shave biopsy (˜4×4 mm) was obtained from each irradiated and untreated control sites. Following injections of a local anesthetic (lidocaine). The skin specimens were immediately fixed in 10% buffered formalin.
The fixed specimens were processed routinely, embedded in paraffin and then sectioned and stained with hematoxylin-eosin. The numbers of sun burn cells (SBC) were determined in at least 12 sections at 50 u intervals. A minimum of 70 high power fields (HPF) was counted from each biopsy and the average number of SBCs per HPF determined. All specimens were counted in a blinded manner.
FIG. 3 expresses the photoprotective benefits of the antioxidants tested based on the percent change over baseline (delta percent) for the number of SBC per HPF.

[1] = Radical scavenging capacity measured by photochemilluminescence (Photochem system); type: biochemical; conditions: for Photochemilluminescence score: 10 nmol/L=20, 100 nmol/L=15, 1000 nmol/L=10, >1000 nmol/L=5; for Effective Concentration (to eliminate radical formation): lowest effective concentration, base 10 serial dilution
From the text: Test 2: Radical Scavenging Capacity Measured by Photochemilluminescence
This test assessed the general antioxidative capacity of substances in their ability to scavenge free radicals via the measurement of radicals generated (or lack thereof) through their reaction with luminol and subsequent light emission.
The individual antioxidant capacity of the putative antioxidant substances was estimated by the Photochem® system (Analytik Jena AG, Jena, Germany, and Analytik Jena USA, Inc., Texas). The system combines the generation of radicals through photochemical excitation with highly sensitive luminometric detection via the radical reaction with luminol to produce measurable light emission. Samples are diluted with pre-made buffers (standardized kits) and applied to the device. The relative antioxidative capacity is determined by comparison to a standardized blank (without antioxidants) and a standard provided with the kit. The ACL-kit (Integral Antioxidative Capacity of lipid-soluble substances) and the ACW-kit ((Integral Antioxidative Capacity of water-soluble substances) were used.
Antioxidant concentrations effective to eliminate radical formulation were established for each antioxidant.

[2] = LDL pro-oxidative system (CuSO4) measuring primary oxidation by-products (lipid hydroperoxides); type: biochemical; conditions: 100 μmol antioxidant; normalized to best performer = 20 points
From the text: Test 3: LDL Pro-Oxidative Systems Measuring Primary & By-Products
This test assessed the ability of the antioxidant to protect LDL stressed with Copper Sulfate (Cu—SO4) oxidative system. The CuSO4-LDL system was used to evaluate the protection of lipid bulks over time measuring the primary by-products of lipid peroxidation—the highly reactive and cytotoxic lipid hydroperoxides.
After isolation, LDLs were extensively dialyzed against a degassed and nitrogen-saturated Tris-Hydrochloric (HCl) buffer (5 mmol/L, pH7.4) containing 1 mmol/L EDTA. Before oxidation by CuSO4, EDTA was removed from LDL by dialysis against a Tris-HCl buffer (5 mmol/L, pH7.4) without added EDTA.
Lipid hydroperoxides were determined with the Cayman Lipid Peroxidation (LPO) Assay Kit (Cayman Chemical, Ann Arbor, Mich.) which measures the hydroperoxides directly utilizing the redox reactions with ferrous ions to produce ferric ions which can be detected using thiocyanate ion as the chromogen.

[3] = Microsome pro-oxidative system (NADPH/ADP/Fe3+) measuring secondary oxidation by-products (MDA equivalents, TBARS); type: biochemical, male Wistar rats; conditions: 100 μmol antioxidant; normalized to best performer = 20 points
Procedure: Test 4: Microsome Pro-Oxidative System measuring Secondary Oxidation By-Products
In this test, an assessment of antioxidative ability to protect microsomal membrane stressed with NADPH/ADP/Fe^3+-oxidative system measuring secondary oxidative by-products (Malondialdehyde-MDA equivalents) was performed utilizing the Thiobarbituric Acid Reactive Substances (TBARS) method. […] Therefore the pro-oxidative NADPH/ADP/Fe^3+-microsome system was used as an in vitro model system more closely resembling natural cellular biological systems.
Livers were obtained from male Wistar rats weighing between 250 and 400 g. Tissue was homogenized in 50 mmol/L N-2-Hydroxyethylpiperazine-N-2-Ethanesulfonic Acid (HEPES), 250 mmol/L sucrose buffer, pH 7.4, containing 150 mmol/L Potassium Chloride (KCl) and 500 μmol/L EDTA using a kinematica polytron PT3000 (Brinkmann Instruments, Westbury, N.Y.) homogenizer. Microsomal vesicles were isolated by removal of the nuclear fraction at 8,000×g for 10 min at 4° C. and removal of the mitochondrial fraction at 18,000×g for 10 min at 4° C. using a Beckman L8-55 ultracentrifuge and a 50Ti-13 rotor. The microsomal fraction was sedimented at 105,000×g for 60 min at 4° C. The pellet was washed once in 50 mmol/L HEPES and 150 mmol/L KCl, pH7.4, and collected again at 105,000×g for 30 min. The resulting microsomal pellet was resuspended in HEPES/KCl, pH7.4, by careful sonication in ice and stored in portions (10 mg protein/ml) at −80° C. until use.
The microsomal preparations were incubated in the presence of the pro-oxidant system NADPH/ADP/Fe^3+, consisting of 0.20 mmol/L NADPH, 50 mmol/L ADP, and 0.25 mmol/L FeCl3 in HEPES/KCl buffer (150 mmol/L KCl, 50 mmol/L HEPES) with and without the putative antioxidant substances. Oxidation of 1-ml aliquots containing 1 mg of protein was started at 37° C. by the addition of NADPH and was stopped with EDTA (10 mmol/L) after the times indicated in the figure legends. Control incubations without the pro-oxidant system were performed at 37° C. in the presence of EDTA. All Antioxidants were dissolved in water or ethanol and added to the incubations at equivalent 100 μmol concentrations.
Microsomal preparations (500 μl) were mixed with 1 ml of thiobarbituric acid (0.67 g/100 ml, 0.05 mol/L Sodium Hydroxide-NaOH). After the addition of trichloroacetic acid (50% w/v), the samples were heated to 90° C. for 30 min. After cooling and extraction of the samples with 1 ml of butanol, the absorbance of the butanol phase was determined spectrophotometrically at 532 nm. For quantification, an external standard curve was prepared using 1,1,3,3-tetraethoxypropane, which yields MDA.

[4] = system: Human primary foreskin keratinocytes; experiment: UVB irradiation of keratinocytes measuring DNA damage (nuclear thymine dimer staining); type: cell-based; parameters: Inhibition of photoproduct generation (protective effect): concentration or dose not given beside the values; conditions: for Positive cells after UVB radiation (anti-thymine dimer antibody positive cells) / Inhibition of photoproduct generation (protective effect): 200 mJ/cm2 UVB; for Positive cells after UVB radiation (anti-thymine dimer antibody positive cells): positive cells above threshold in three fields, irradiated control 53%; for Inhibition of photoproduct generation (protective effect): relative to irradiated control; for UVB Irradiated Keratinocytes score: normalized to best performer = 20 points
From the text: Test 5: UVB Irradiation of Keratinocytes Measuring DNA Damage
This test assessed DNA damage in cell culture experiments under pro-oxidative conditions (UVB irradiation of human keratinocytes) by measuring the positive cells for anti-thymine dimer antibodies. This experiment is thought to reflect a direct correlation to the in vivo occurring DNA cross linking damage following UVB exposure and the protection of such nuclear damage by antioxidants.
Human primary foreskin keratinocytes (second passage) were grown in 6-well plates containing cover slips to 60% confluence in serum free medium (KGM, Clonetics) containing 0.07 mM CaCl2. Six hours before UVB-radiation medium was removed and replaced by fresh growth medium with or without the antioxidative substances.
Keratinocyte cultures were irradiated with a single dose of 200 mJ/cm2 UVB, using FS-20/T-12 bulbs (emission range: 280-340 nm; 305 nm max.). Immediately prior to irradiation, the medium was replaced with 1 ml sterile PBS (pH 7.4, 37° C.), and after irradiation, PBS was replaced with fresh growth medium. UVB exposure was quantitated using a Goldilux Ultraviolet radiometer. Cells were maintained at 37° C. (5% CO2) for 1 hour until fixation with paraformaldehyde (PFA).
Cells were fixed with 4% PFA in PBS for 30 min at RT, washed with PBS and permeabilized by incubation with EtOH/PBS (90/10; v %/v %) for 30 min at ˜10° C. After fixation and permeabilization cells were washed twice with PBS containing 1% of bovine serum albumin (BSA). They were then incubated for 30 min with 10 μg/ml anti-thymine Dimer Ab (clone KTM53; Kamiya) at RT. After the incubation period cells were washed twice with PBS-BSA and incubated for 30 min with 20 μg/ml secondary FITC-conjugated anti-mouse IgG at RT. After the incubation with the secondary antibody, cells were washed twice with PBS-BSA and fixed again with 4% PFA for 15 min at RT. Slides were analyzed by confocal microscopy.
This experiment is thought to reflect the in-vivo occurring DNA damage following UVB exposure and the protection of such nuclear damage by antioxidants.

[5] = Global relative antioxidant activity: total oxidative stress protective capacity score (sum of five tests); conditions: sum of five equally weighted tests, maximum 100
From the text: Each oxidant was scored in each test, the results were then totaled for each antioxidant for each of the tests on an equal weighted basis. The total score of a particular antioxidant is reflective of the overall oxidative stress protective capacity of the antioxidant.
The five tests, which were equally weighted at 20 points each, allowed for the maximum highest possible score of 100 points. Using this scale, the higher score indicates higher oxidative stress protective capacity of the antioxidant. Equal weight was given to an antioxidant's performance in each study because each study tested the antioxidant's ability to protect against a unique different set of oxidative stress parameters.
A total oxidative stress protective capacity score for each antioxidant was determined by adding the results of the five tests for each antioxidant. Each of the five tests was assigned equal weight. That is, each antioxidant could receive a maximum of 20 points in each test so that each test contributed equally to the total score for each antioxidant.

Structure (SMILES) | reduction in SBCs (human skin) [%] | Sun Burn Cell Assay score (human skin) [points] | relative activity (efficacy) to the standard idebenone in sun burn cell assay (human skin; percentage reduction divided by that of idebenone) [%] | Photochemilluminescence score [1] [points] | Effective Concentration (to eliminate radical formation) [1] | Primary Oxidative Products score [2] [points] | Secondary Oxidative Products score [3] [points] | Positive cells after UVB radiation (anti-thymine dimer antibody positive cells) [4] [%] | Inhibition of photoproduct generation (protective effect) [4] [%] | UVB Irradiated Keratinocytes score [4] [points] | Total Points (Total Score) [5] [points]
Cc1c(C)c2c(c(C)c1O)CCC(C)(CCCC(C)CCCC(C)CCCC(C)C)O2 (racemic) [Tocopherol, dl-alpha tocopherol] | 31 | 16 | 82 | 20 | 10 nmol/L | 10 | 17 | 35 | 34 | 17 | 80
O=C(O)CCCCC1CCSS1 (racemic) [lipoic acid, dl-alpha lipoic acid] | – | 5 | – | 5 | >1000 (not detectable) nmol/L | 4 | 20 | 53 | 0 | 7 | 41
O=C1O[C@H]([C@@H](O)CO)C(O)=C1O [Ascorbic acid, 1-ascorbic acid] | – | 0 | – | – | – | – | – | 34 | 36 | 17 | –
COC1=C(OC)C(=O)C(CCCCCCCCCCO)=C(C)C1=O [Idebenone, 6-(10-hydroxydecyl)-2,3-dimethoxy-5-methyl-1,4-benzoquinone] | 38 | 20 | – | 20 | 10 nmol/L | 16 | 19 | 29 | 45 | 20 | 95
c1coc(CNc2ncnc3[nH]cnc23)c1 [Kinetin, kinetin] | – | 11 | – | – | – | – | – | 34 | 36 | 17 | –
COC1=C(OC)C(=O)C(C/C=C(\C)CC/C=C(\C)CC/C=C(\C)CC/C=C(\C)CC/C=C(\C)CC/C=C(\C)CC/C=C(\C)CC/C=C(\C)CC/C=C(\C)CCC=C(C)C)=C(C)C1=O [Ubiquinone, ubiquinone] | – | 6 | – | 15 | 100 nmol/L | 5 | 12 | 51 | 4 | 17 | 55

Source: patent US8802054B2, “Method for characterizing the oxidative stress protective capacity of an antioxidative substance” (PCR Technology Holdings, LC, priority 2005, dated 2014)
